Here are results for 6 compounds from patent publication US20220088007A1 (priority 2010, published 2022).

Data set [1] in a line: Example 1 (NB-233): single-dose crossover food-effect study of NB 8/90 trilayer tablets, plasma pharmacokinetics. To be noted: for increase in Cmax: high-fat conditions compared to fasted conditions; for Cmax between high-fat and fasted conditions (in words): 90% CIs within 80% to 125% range.
A short description of data set [2]: Example 2 (NB-236): steady-state food-effect extension study of NB 8/90 tablets, plasma pharmacokinetics. The procedure:
A phase I, open label, steady-state study was performed to assess the plasma pharmacokinetics of NB tablets under fed and fasted conditions. An extension of the study allowed for the evaluation of the effect of food on the pharmacokinetics of NB tablets.
Days 1-31 of the study were devoted to the primary investigation of metoprolol pharmacokinetics in the context of steady-state dosing with NB tablets. Subjects (n=18) received a metoprolol 50 mg IR tablet on Days 1 and 31. NB was dose escalated every week from a single NB 8/90 tablet per day on Day 3 to a maximum dose of NB 32/360 (two NB 8/90 tablets BID) starting on Day 24. In the clinic setting (Days 1-3 and 27-31), standardized meals were provided before dosing and pharmacokinetic sampling. These meals were moderate in fat and caloric content. Subjects were instructed to take study medication with food during the outpatient (Days 4-26) phase of the study.
Subjects enrolling in the optional extension continued BID dosing administration (with moderate meals) through Day 32. […] The evening dose on Day 33, study medication was given with food (“moderate” meal). For Day 34, subjects received their morning dose under the opposite condition from what they received on the morning of Day 33. […] For purposes of studying the effects of food, the comparisons were between Day 30 pharmacokinetics (“moderate” meal) and the fasted and high-fat meal conditions administered on Day 33 and Day 34.

The conditions of data set [3]: in vivo.
For data set [4] the following is noted: human, in vivo.
Data set [5] in a line: clinical. To be noted: both, human.
A short description of data set [6]: clinical. To be noted: human.
Data set [7] is described as follows: Example 3 (NB-239 vs NB-237): single dose NB 8/90 tablets, moderate-fat, moderate-calorie meal vs fasted, cross-study comparison. To be noted: for Cmax: single dose two NB 8/90 tablets.
Setting [8] is: fed moderate-fat meal, mean ± SD.
Setting [9] is: fed moderate-calorie, moderate-fat meal, mean ± SD.
[10] abbreviates: fed (high-fat meal), arithmetic mean ± SD.

Like-named read-outs stand apart in the source and are kept apart here.

For `Oc1ccc2c3c1O[C@H]1[C@H](O)CC[C@@]4(O)[C@@H](C2)N(CC2CC2)CC[C@]314` [6β-naltrexol], in data set [1], the “increase in Cmax” value is on record as 52%. The “effect of food (moderate-fat or high-fat meal) on exposure relative to the fasted state (in words)” value in data set [2] (steady state, two NB 8/90 tablets) is “neither meal type appeared to affect”.
Consider `CC(NC(C)(C)C)C(=O)c1cccc(Cl)c1` (stereo not shown) [Bupropion, bupropion], for which the “AUC0-t Fed to Fasted % MR” value in data set [3] (both, human) is listed as 139.50%. The “t1/2 apparent terminal elimination half-life” value in data set [3] (both, human) worked out at 20.44 h. Moreover, the “apparent terminal elimination t1/2, fed vs fasted conditions (in words)” value in data set [3] is listed as “similar”. Also, the “median Tmax, fed vs fasted conditions (in words)” value in data set [3] is on record as “one hour shorter”. For the same compound, in data set [4], the “AUC0-t % MR, fed (moderate-fat) to fasted” value is 91.55%. In addition, the area under the curve AUC(0-inf) in “clinical [5]” (in vivo) worked out at 1620 ± 574 ng·h/mL. The Cmax in “clinical [5]” (in vivo) was 161 ± 52.1 ng/mL; in data set [2] (steady state, morning dose two NB 8/90 tablets fasted, Day 33 or 34, mean ± SD), 131 ± 38.2 ng/mL; in data set [2] (steady state, morning dose two NB 8/90 tablets fed high-fat meal, Day 33 or 34, mean ± SD), 167 ± 43.4 ng/mL; in data set [2] (steady state, two NB 8/90 tablets BID, fed moderate meal, Day 30, mean ± SD) it was 156 ± 52.5 ng/mL; in data set [7] (fasted, mean ± SD), 156 ± 36.9 ng/mL; in data set [7] (setting [9]), 154 ± 55.4 ng/mL. Also, the Tmax was 2.07 h in “clinical [6]” (in vivo) and 1.99 h in data set [2] (both, human, in vivo, po, Tmax). The AUC0-t was 1550.91 ± 549.08 ng·h/mL in data set [1] (fasted, arithmetic mean ± SD); 965 ± 249 ng·h/mL in data set [2] (both, human, in vivo, po); 1496.01 ± 323.04 ng·h/mL in data set [7] (fasted, mean ± SD). Also, the Cmin in data set [2] (both, human, in vivo) is recorded as 41.6 ± 10.4 ng/mL. Moreover, the “AUC0-∞” value in data set [7] (fasted, mean ± SD) was 1574.93 ± 346.49 ng·h/mL; in data set [7] (setting [8]), 1384.85 ± 330.19 ng·h/mL. This compound also came in with a t1/2 in data set [7] (fasted, mean ± SD) of 19.83 ± 3.24 h.
As for `O=C1CC[C@@]2(O)[C@H]3Cc4ccc(O)c5c4[C@@]2(CCN3CC2CC2)[C@H]1O5` [Naltrexone, naltrexone], the AUC(0-inf) in the data set “clinical [5]” (plasma, oral) worked out at 8.39 ± 4.26 ng·h/mL; in the data set “clinical [6]” (plasma, oral) it was 8.55 ± 6.46 ng·h/mL. Also, the Tmax in “clinical [5]” (plasma, oral) is 2 h; in the data set “clinical [6]” (plasma, oral) it was 1.27 h; in data set [1] (fed (high-fat meal), median (minimum, maximum)), 2.00 (0.75, 6.00) hr; in data set [2] (both, human, plasma, po, Tmax, fasted, Day 33 or 34, median (minimum, maximum)), 0.75 h; in data set [2] (both, human, plasma, po, Tmax, fed moderate meal, Day 30, median (minimum, maximum)), 2 h; in data set [2] (fed high-fat meal, Day 33 or 34, median (minimum, maximum)), 3.00 (1.25, 6.00) hr. In data set [7] (fed moderate-fat meal, median (minimum, maximum)), the Tmax is on record as 2.00 (0.75, 6.00) hr. The AUC0-t was 8.3 ± 6.41 ng·h/mL in the data set “clinical [6]” (plasma, oral); 7.98 ± 4.04 ng·h/mL in data set [1] (fasted, arithmetic mean ± SD); 16.42 ± 8.70 ng·h/mL in data set [1] (setting [10]); 7.07 ± 2.88 ng·h/mL in data set [2] (both, human, plasma, po, fasted, Day 33 or 34, mean ± SD); 11.8 ± 4.68 ng·h/mL in data set [2] (both, human, plasma, po, fed high-fat meal, Day 33 or 34, mean ± SD); 11.7 ± 4.45 ng·h/mL in data set [2] (both, human, plasma, po, fed moderate meal, Day 30, mean ± SD). The compound also showed an AUC0-t in data set [7] (setting [8]) of 13.41 ± 6.93 ng·h/mL. Further, the Cmax in “clinical [6]” (plasma, oral) turned out to be 1.34 ± 0.763 ng/mL; in data set [1] (plasma, single dose two NB 8/90 tablets, fed (high-fat meal), arithmetic mean ± SD), 4.00 ± 2.52 ng/mL; in data set [2] (both, human, plasma, po, Cmax, steady state, morning dose two NB 8/90 tablets fasted, Day 33 or 34, mean ± SD), 1.47 ± 0.71 ng/mL; in data set [2] (both, human, plasma, po, Cmax, steady state, morning dose two NB 8/90 tablets fed high-fat meal, Day 33 or 34, mean ± SD), 2.84 ± 1.53 ng/mL; in data set [2] (both, human, plasma, po, Cmax, steady state, two NB 8/90 tablets BID, fed moderate meal, Day 30, mean ± SD), 2.6 ± 1.02 ng/mL; in data set [7] (setting [9]) it was 2.65 ± 1.18 ng/mL. The “AUC0-∞” value in data set [1] (setting [10]) was 16.65 ± 8.70 ng·h/mL; in data set [7] (setting [8]), 13.63 ± 7.15 ng·h/mL. Also, the “median Tmax, fed vs fasted conditions (in words)” value in data set [1] (fed vs fasted) is “similar”. Moreover, the “AUC0-t Fed to Fasted % MR” value in data set [1] (high-fat fed vs fasted) was 211.50%. Also, the Cmin was 0.172 ± 0.0758 ng/mL in data set [2] (fasted, Day 33 or 34, mean ± SD); 0.159 ± 0.0895 ng/mL in data set [2] (fed high-fat meal, Day 33 or 34, mean ± SD); 0.195 ± 0.105 ng/mL in data set [2] (fed moderate meal, Day 30, mean ± SD). Also, the “lower Cmin versus the fasted condition” value in data set [2] (high-fat, high-calorie meal) is listed as 12%. Further, in data set [2] (moderate-fat, moderate-calorie meal), the “higher Cmin versus the fasted condition” value amounted to 10%. Also, in data set [2] (steady state), the “Cmin % MR, high-fat fed to fasted” value is reported as 88.39%. The “Cmin % MR, high-fat to moderate-fat” value in data set [2] (steady state) is given as 80.15%. Besides, in data set [2] (steady state), the “Cmin % MR, moderate-fat fed to fasted” value came out at 110.04%. Also, the “effect of changing meal from moderate-fat, moderate-calorie to high-fat, high-calorie (in words)” value in data set [2] (steady state, morning dose) is recorded as “no effect”.
As for `CC(NC(C)(C)C)C(O)c1cccc(Cl)c1` (stereo not shown) [erythrohydrobupropion], in data set [1], the “Cmax between high-fat and fasted conditions (in words)” value is “comparable”.
Same read-out and setting: then `C[C@H]1NC(C)(C)CO[C@]1(O)c1cccc(Cl)c1` [hydroxybupropion], with “comparable”.
As to `C[C@H](NC(C)(C)C)[C@@H](O)c1cccc(Cl)c1` [threohydrobupropion], the “increase in Cmax” value in data set [1] is 26%.

Broadly, the AUC(0-inf) is the area under the concentration-time curve extrapolated to infinity. A low value points to less exposure.
